Assays:
TEAD2 = biological target: T1, TEAD2 (Homo sapiens, UniProt Q15562); experiment: HiBiT degradation assay, HEK293T HiBiT-TEAD2; type: cell-based; conditions: 6 h
T1 construct: endogenous in cells; host or cells: HEK293T HiBiT knock-in
Method: (§1) HiBiT cells were inoculated into 96‐well flat‐bottomed tissue culture plates at a density of 50 000 cells per well, followed by adding degraders into the wells using the I‐DOT dispenser. After 6 h of incubation, the cells were lysed and assayed for degradation using the Nano‐Glo HiBiT Lysis Assay System (Promega, #N3030). Luminescence signals were read using an Envision plate reader (Revvity) and the data were analyzed using GraphPad Prism 9.5 software.
(§2) The ribonucleoprotein (RNP) complex was prepared by mixing 2 µg of NLS‐Cas9‐EGFP nuclease (Novoprotein, #E379‐01A), 50 pmol of sgRNA, 10 µL of electrotransfer solution, and 50 pmol of designed donor DNA, then incubated for 10 min at room temperature. One million HEK293T cells were resuspended in 10 µL of electrotransfection solution and mixed with 10 µL of the RNP complex. Electroporation was performed using a Celetrix SP100 electroporator at 480 V. After electroporation, the cells were transferred to antibiotic‐free DMEM complete medium for overnight culture. The following day, EGFP‐positive cells were sorted using a Sony MA 900 cell sorter, plated in a 96‐well cell culture plate (Servicebio, #CCP‐96H), and cultured for 4 weeks. After this period, positive clones were screened using the Nano‐Glo HiBiT Lytic Detection system (Promega, #N3030).

TEAD3 = biological target: T2, TEAD3 (Homo sapiens, UniProt Q99594); experiment: HiBiT degradation assay, HEK293T HiBiT-TEAD3; type: cell-based; conditions: 6 h
T2 construct: endogenous in cells; host or cells: HEK293T HiBiT knock-in
Method: as §1, §2

KLE cells = experiment: Cell viability assay (CTG, 72 h) KLE; type: cell-based; conditions: Homo sapiens, KLE, 72 h, 3-day compound treatment
Method: (§3) Cells were seeded at a density of 1000 cells per well in 96‐well flat‐bottomed cell culture plates and cultured overnight at 37 °C with 5% CO2 to allow for cell attachment. The following day, different concentrations of compounds were added using an I‐DOT dispenser. After 72 h, 25 µL of CellTiter‐Meiluncell Luminescent Cell Viability Reagent (Meilunbio, #PWL111‐2) was added and incubated for 15 min at room temperature. Luminescence signals were then measured using an Envision plate reader (Revvity). Data were analyzed using GraphPad Prism 9.5 software.^[ [30] ^]

TEAD1/3, TAZ = experiment: Immunoblot in A172 cells; type: cell-based; conditions: 24 h
Method: (§4) Immunoblotting was carried out as previously described.^[ [29] ^] Cells were seeded in 6‐well plates (Yeasen, #84011ES50) at a density of 1 million cells per well. The following day, cells were treated with compounds at the required concentrations, with the DMSO concentration kept below 0.4‰ to prevent toxic effects on the cells. The collected cell pellets were washed three times with PBS (Meilunbio, #MA0015) and resuspended in 120 µL of RIPA lysis buffer (Meilunbio, #MA0151) containing 1% protease inhibitor (Meilunbio, #MB2678‐2). The cells were then sonicated on ice and centrifuged at 12 000 rpm for 15 min at 4 °C to remove cellular debris. Protein concentrations were determined using the BCA Protein Quantification Kit (Meilunbio, #MA0082‐1). The protein samples were normalized, boiled at 99 °C for 10 min, and then subjected to electrophoresis on a 10% SDS‐PAGE gel. The separated protein bands were transferred to nitrocellulose membranes, blocked with TBST containing 5% BSA, and incubated with the indicated primary antibodies. Finally, the blots were imaged using an Amersham Typhoon NIR imager.

[1] = system: MSTO-211H CRBN knockout cells; experiment: Cell viability assay, CRBN-knockout MSTO-211H; type: cell-based; conditions: Homo sapiens, Figure 3D, read-out: MSTO-211H: CRBN KO IC50
Method: as §3

CRBN-DDB1 = CRBN-DDB1 (Homo sapiens, UniProt Q96SW2); experiment: CRBN binding assay, biochemical (HTRF); conditions: recombinant CRBN-DDB1, 1 h, read-out: Biochemical CRBN Binary Binding IC50 (nM ± SD)
Method: Next, 400 nL of compound solution (initial concentration 10 µM, followed by a three‐fold gradient dilution) was dispensed into the wells using the positive‐pressure‐based I‐DOT dispenser. After 1 h of incubation at room temperature, the HTRF signal was measured using an Envision plate reader (Revvity). Finally, the data were analyzed using non‐linear regression curves in GraphPad Prism 9.5 software.

TEAD1, TEAD3, and TEAD4 = experiment: Immunoblot dose-response in TEAD1-mNeonGreen fusion NCI-H1299 cells; type: cell-based; conditions: 6 h
Method: as §4

[2] = 7-day toxicological study in MSTO-211H tumor-bearing mice; type: in vivo; conditions: 10 or 30 mg/kg i.p. daily, 7 days
Method: A toxicological evaluation was conducted using an MSTO‐211H xenograft mouse model. All animal studies were carried out in accordance with protocols approved by the Institutional Animal Care and Use Committees of Tongji University and the Chinese Academy of Sciences, and in compliance with national, institutional and local regulations. These experiments were conducted in specific‐pathogen‐free (SPF) and Helicobacter‐free facilities at both institutions. After 7 consecutive days of drug administration (10 mg kg^−1 or 30 mg kg^−1, i.p., q.d.), whole blood and major organs—including the heart, liver, spleen, lungs, and kidneys—were collected for analysis. Blood samples were anticoagulated with EDTA (1.5 mg mL^−1), gently mixed, and subjected to standard hematological assessment. Tissue samples were processed for both paraffin‐embedded and frozen section analysis. Paraffin embedding involved fixation, graded dehydration, clearing, embedding, sectioning at 4 µm, and dewaxing to water. Frozen sections were prepared by embedding tissues in OCT compound, sectioning at −20 °C with a thickness of 8 µm, followed by acetone fixation and rinsing with PBS. […] Microscopic examinations and image acquisition were carried out, and quantitative analyses were performed using specialized image analysis software. […]

T1 sequence (Q15562 whole entry): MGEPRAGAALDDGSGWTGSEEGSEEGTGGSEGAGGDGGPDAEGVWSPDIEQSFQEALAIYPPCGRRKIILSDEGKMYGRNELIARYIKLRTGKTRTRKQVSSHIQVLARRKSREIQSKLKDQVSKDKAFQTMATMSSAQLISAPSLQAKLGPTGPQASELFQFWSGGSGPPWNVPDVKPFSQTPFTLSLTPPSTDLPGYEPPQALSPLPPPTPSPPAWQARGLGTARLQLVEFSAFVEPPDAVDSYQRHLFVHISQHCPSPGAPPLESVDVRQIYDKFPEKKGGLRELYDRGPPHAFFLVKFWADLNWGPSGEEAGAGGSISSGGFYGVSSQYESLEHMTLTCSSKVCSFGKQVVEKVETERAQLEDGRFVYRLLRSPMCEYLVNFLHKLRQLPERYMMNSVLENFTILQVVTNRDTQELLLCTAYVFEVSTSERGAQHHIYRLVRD
T2 sequence (Q99594 whole entry): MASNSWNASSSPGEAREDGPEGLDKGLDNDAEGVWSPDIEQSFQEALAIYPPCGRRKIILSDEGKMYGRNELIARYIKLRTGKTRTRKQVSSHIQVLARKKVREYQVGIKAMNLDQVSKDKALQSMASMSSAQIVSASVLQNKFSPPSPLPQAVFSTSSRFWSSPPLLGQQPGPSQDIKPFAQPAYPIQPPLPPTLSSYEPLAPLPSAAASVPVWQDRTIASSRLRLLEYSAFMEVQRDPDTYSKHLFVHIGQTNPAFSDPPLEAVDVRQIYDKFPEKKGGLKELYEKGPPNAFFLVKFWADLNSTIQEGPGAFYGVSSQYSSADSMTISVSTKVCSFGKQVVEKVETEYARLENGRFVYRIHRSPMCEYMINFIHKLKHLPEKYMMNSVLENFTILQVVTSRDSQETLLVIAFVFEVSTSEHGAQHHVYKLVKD
CRBN-DDB1, sequence (Q96SW2 whole entry): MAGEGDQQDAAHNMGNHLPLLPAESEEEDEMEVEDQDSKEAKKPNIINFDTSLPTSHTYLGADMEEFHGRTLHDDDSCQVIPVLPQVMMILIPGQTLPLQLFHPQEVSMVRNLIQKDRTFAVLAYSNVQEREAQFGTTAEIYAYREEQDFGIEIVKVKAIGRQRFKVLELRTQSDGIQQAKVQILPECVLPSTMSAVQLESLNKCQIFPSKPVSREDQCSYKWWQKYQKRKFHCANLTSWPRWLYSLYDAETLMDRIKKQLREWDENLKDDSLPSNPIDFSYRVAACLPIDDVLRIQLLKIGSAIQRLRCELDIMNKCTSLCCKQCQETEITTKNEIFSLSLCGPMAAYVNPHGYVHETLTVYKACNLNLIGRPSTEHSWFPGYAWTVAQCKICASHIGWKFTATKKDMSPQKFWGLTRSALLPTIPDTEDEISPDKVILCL

Structure (SMILES): CNC(=O)c1cc2c(c(F)c1-c1c(Cl)c(F)cc3c1C[C@@](CN[C@H]1CC[C@H](C(=O)N4CCC(CC5CCN(C(=O)COc6ccc(N7CCC(=O)NC7=O)c(C)c6)CC5)CC4)CC1)(c1ccccc1)O3)[C@@H](O)[C@@H](C)C2 [KG-FP-003]
- DC50 (TEAD2): 0.068 ± 0.015 µM
- TEAD2 Dmax (TEAD2): over 80%
- Dmax (TEAD2; HEK-293T): 84 ± 5%
- DC50 (TEAD3): 0.012 ± 0.005 µM
- TEAD3 Dmax (TEAD3): ≈ 90%
- Dmax (TEAD3; HEK-293T): 87 ± 9%
- IC50 (KLE cells): 0.059 ± 0.034 µM
- Degradation of TEAD1 and TEAD3 by immunoblot (TEAD1/3, TAZ): complete degradation
- TAZ protein expression by immunoblot (TEAD1/3, TAZ): increased TAZ protein expression
- IC50 [1]: 0.543 ± 0.05 µM
- IC50 (CRBN-DDB1): 591 ± 21 nM
- DC50 against TEAD1, TEAD3, and TEAD4 by immunoblot (TEAD1, TEAD3, and TEAD4): nanomolar range
- Hematological analyses [2]: no significant deviations from baseline
- Histopathological examination of heart, liver, spleen, lungs, kidneys [2]: no structural abnormalities or pathological lesions
